Assay results from patent publication US8703771B2, “Preparation method of dihydroindene amide compounds, their pharmaceutical compositions containing compounds thereof and use as protein kinases inhibitor” (Harbin Gloria Pharmaceuticals Co., Ltd., priority 2008, dated 2014).
Where a name gives a salt, the structure may show the parent alone. Read-outs that look alike come from different tables or passages of the source.

What was measured:
[1] = target: T1, c-Kit (Homo sapiens (Human), UniProt P10721); assay: Mobility Shift Assay of c-Kit kinase enzyme activity; format: biochemical; details: ATP at Km 87 μM, 40 minutes at 28° C., pre-activated c-Kit
Method: (§1) The activity of the compounds of this invention on Abl, c-Kit and PDGFR kinases was tested by Mobility Shift Assay (MSA).
(§2) • 1. Preparation of kinase buffer and stop buffer;
(§3) The compound was dissolved in DMSO and then serial dilutions were prepared; • 3. Preparation of kinase solution: Kinase solution was obtained by dissolving kinases in the kinase buffer mentioned above. With regard to c-Kit kinase, the pre-activation treatments should be carried out as follows. 700 nM c-Kit, 2 mM ATP, 4 mM DTT and 10 mM MgCl2 were dissolved in kinase buffer. After being incubated at 28° C. for 15 minutes, the solution was added to the kinase buffer; • 4. Preparation of polypeptide solution: Polypeptide FAM and ATP were dissolved in kinase buffer; • 5. The kinase solution was transferred to a culture plate and incubated for 10 minutes at room temperature. […] The polypeptide solution was transferred to the culture plate. […] The final concentrations of MgCl2 in all circumstances were all 10 mM; • 7. The mixture in each well of the plate was incubated at 28° C., for 1 hour for Abl, 40 minutes for c-Kit and 5 hours for PDGFR. The stop buffer was then added to terminate the reaction; • 8. Data were collected in Caliper and then input into the software XLfit to calculate IC50 values.

[2] = target: PDGFR (Homo sapiens); assay: Mobility Shift Assay of PDGFR kinase enzyme activity; format: biochemical; details: ATP at Km 38 μM, 5 hours at 28° C.
Method: as §1, §2, §3

[3] = target: T1, c-Kit; assay: 33P-ATP kinase assay, c-Kit; format: biochemical; details: 33P-ATP assay; ATP concentration 30 μM; 2 mM MnCl2 in buffer
Method: (§4) Inhibitory activity of the compounds of this invention on Abl, c-Kit and PDGFR mutant kinases was tested by the phosphor isotope-labelled ATP (^33P-ATP) assay. • 1. Substrate solution was prepared using newly-prepared reaction buffer. The buffer includes: 20 mM HEPES, pH 7.5, 10 mM MgCl2, 1 mM EGTA, 0.02% Brij 35, 0.02 mg/ml BSA, 0.1 mM Na3VO4, 2 mM DTT, 1% DMSO. […] Required co-enzymes were added to the above substrate solution; • 3. Kinases were added and mixed gently; • 4. The tested compound was dissolved in DMSO, and then added to the above kinase solution by using Acoustic technique (Echo550, nanoliter range) and incubated for 20 minutes; • 5. ^33P-ATP was added to the above reaction mixture to initiate the reaction; • 6. The mixture was incubated for 2 hours at room temperature; • 7. The activity of kinases was tested by filtration-combination; • 8. The data were processed in Excel and the control data were subtracted. A curve was drawn by the GraphPad Prism software to get the IC50 value.

[4] = target: c-Kit (D816H) (Homo sapiens (Human), UniProt P10721, D816H); assay: 33P-ATP kinase assay, c-Kit (D816H); format: biochemical; details: 33P-ATP assay; ATP concentration 30 μM
Method: as §4

[5] = target: c-Kit (D816V) (Homo sapiens (Human), UniProt P10721, D816V); assay: 33P-ATP kinase assay, c-Kit (D816V); format: biochemical; details: 33P-ATP assay; ATP concentration 30 μM
Method: as §4

[6] = target: c-Kit (T670I) (Homo sapiens (Human), UniProt P10721, T670I); assay: 33P-ATP kinase assay, c-Kit (T670I); format: biochemical; details: 33P-ATP assay; ATP concentration 30 μM
Method: as §4

[7] = target: c-Kit (V560G) (Homo sapiens (Human), UniProt P10721, V560G); assay: 33P-ATP kinase assay, c-Kit (V560G); format: biochemical; details: 33P-ATP assay; ATP concentration 30 μM
Method: as §4

[8] = target: c-Kit (V654A) (Homo sapiens (Human), UniProt P10721, V654A); assay: 33P-ATP kinase assay, c-Kit (V654A); format: biochemical; details: 33P-ATP assay; ATP concentration 30 μM; 2 mM MnCl2 in buffer
Method: as §4

[9] = test system: chronic myeloid leukaemia cell K562; assay: cells; details: Homo sapiens, K562, 72 h, read-out: IC50 (nM) inhibition of K562 cell growth
[10] = test system: chronic myeloid leukaemia cell K562; assay: MTS growth inhibition assay, K562 cell strain; format: cell-based; details: Homo sapiens, MTS/PMS, 72 hours
Method: (§5) This invention also tested the inhibitory activity of the compounds of this invention on the growth of chronic myeloid leukaemia cell K562, KU812, and MEG-01, acute myeloid leukaemia cell Kasumi-1 and acute lymphatic leukemia cell Sup-B15.
(§6) 1. Preparation of Assay Solution
(§7) (1) Preparation of PMS solution: PMS was dissolved in DPBS to give a concentration of […]. The solution was then filtered into a sterile and lightproof container;
(§8) (2) Preparation of MTS solution: a) 21 ml DPBS was added to a lightproof container; b) 42 mg MTS powder was weighted and then added to DPBS; c) the above were mixed on a electromagnetic stirrer until the powder was dissolved; d) the pH value was measured. […] If the pH was higher than 6.5, it should be adjust to 6.5 with 1 N HCl; e) the solution was filtered into a sterile and lightproof container; (3) Preparation of MTS/PMS mixture: a) 2 ml of the MTS solution was transferred to a tube; b) 100 μL of the PMS solution was added to the tube; c) the tube was vortexed gently to mix the solution thoroughly. 2. […] 3. […] 4.

[11] = test system: chronic myeloid leukaemia cell KU812; assay: MTS growth inhibition assay, KU812 cell strain; format: cell-based; details: MTS/PMS, 72 hours
Method: as §5, §6, §7, §8

[12] = test system: chronic myeloid leukaemia cell MEG-01; assay: MTS growth inhibition assay, MEG-01 cell strain; format: cell-based; details: MTS/PMS, 72 hours
Method: as §5, §6, §7, §8

[13] = test system: acute myeloid leukaemia cell Kasumi-1; assay: MTS growth inhibition assay, Kasumi-1 cell strain; format: cell-based; details: Homo sapiens, MTS/PMS, 72 hours
Method: as §5, §6, §7, §8

[14] = test system: acute lymphatic leukemia cell Sup-B15; assay: MTS growth inhibition assay, Sup-B15 cell strain; format: cell-based; details: MTS/PMS, 72 hours
Method: as §5, §6, §7, §8

[15] = test system: chronic myeloid leukaemia cell K562; details: read-out: IC50 (nM) inhibition of K562 cell growth; CellTiter-Glo; 72 hours

Chain of PDGFR (Homo sapiens) (P09619 33-1106 limits assumed): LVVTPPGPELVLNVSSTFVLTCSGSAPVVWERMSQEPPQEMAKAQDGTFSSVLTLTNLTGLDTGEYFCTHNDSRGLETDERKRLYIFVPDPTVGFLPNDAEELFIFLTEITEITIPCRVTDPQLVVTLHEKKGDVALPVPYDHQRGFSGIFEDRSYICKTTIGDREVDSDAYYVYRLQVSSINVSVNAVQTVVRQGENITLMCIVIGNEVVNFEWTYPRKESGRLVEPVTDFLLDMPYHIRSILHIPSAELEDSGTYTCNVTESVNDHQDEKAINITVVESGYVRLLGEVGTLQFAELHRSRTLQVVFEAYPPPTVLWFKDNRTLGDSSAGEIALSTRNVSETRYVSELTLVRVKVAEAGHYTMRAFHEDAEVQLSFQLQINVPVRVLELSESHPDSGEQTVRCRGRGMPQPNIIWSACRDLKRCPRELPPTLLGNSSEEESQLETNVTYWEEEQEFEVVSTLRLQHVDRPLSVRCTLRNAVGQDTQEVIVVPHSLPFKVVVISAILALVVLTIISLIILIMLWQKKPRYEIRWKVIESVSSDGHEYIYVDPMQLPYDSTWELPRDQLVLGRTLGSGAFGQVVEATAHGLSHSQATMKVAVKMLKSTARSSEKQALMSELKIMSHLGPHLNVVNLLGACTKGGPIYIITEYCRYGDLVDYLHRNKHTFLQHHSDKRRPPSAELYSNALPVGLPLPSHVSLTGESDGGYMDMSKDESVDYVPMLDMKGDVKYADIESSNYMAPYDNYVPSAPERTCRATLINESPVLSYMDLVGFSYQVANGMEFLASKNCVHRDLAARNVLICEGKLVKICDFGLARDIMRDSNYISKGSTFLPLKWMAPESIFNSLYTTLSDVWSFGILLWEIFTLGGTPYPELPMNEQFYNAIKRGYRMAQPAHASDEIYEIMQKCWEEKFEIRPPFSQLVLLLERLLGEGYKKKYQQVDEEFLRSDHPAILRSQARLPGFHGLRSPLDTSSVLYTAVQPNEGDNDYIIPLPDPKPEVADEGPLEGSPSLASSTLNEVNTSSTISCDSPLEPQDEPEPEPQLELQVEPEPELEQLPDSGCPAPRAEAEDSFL
T1 sequence (P10721 26-976): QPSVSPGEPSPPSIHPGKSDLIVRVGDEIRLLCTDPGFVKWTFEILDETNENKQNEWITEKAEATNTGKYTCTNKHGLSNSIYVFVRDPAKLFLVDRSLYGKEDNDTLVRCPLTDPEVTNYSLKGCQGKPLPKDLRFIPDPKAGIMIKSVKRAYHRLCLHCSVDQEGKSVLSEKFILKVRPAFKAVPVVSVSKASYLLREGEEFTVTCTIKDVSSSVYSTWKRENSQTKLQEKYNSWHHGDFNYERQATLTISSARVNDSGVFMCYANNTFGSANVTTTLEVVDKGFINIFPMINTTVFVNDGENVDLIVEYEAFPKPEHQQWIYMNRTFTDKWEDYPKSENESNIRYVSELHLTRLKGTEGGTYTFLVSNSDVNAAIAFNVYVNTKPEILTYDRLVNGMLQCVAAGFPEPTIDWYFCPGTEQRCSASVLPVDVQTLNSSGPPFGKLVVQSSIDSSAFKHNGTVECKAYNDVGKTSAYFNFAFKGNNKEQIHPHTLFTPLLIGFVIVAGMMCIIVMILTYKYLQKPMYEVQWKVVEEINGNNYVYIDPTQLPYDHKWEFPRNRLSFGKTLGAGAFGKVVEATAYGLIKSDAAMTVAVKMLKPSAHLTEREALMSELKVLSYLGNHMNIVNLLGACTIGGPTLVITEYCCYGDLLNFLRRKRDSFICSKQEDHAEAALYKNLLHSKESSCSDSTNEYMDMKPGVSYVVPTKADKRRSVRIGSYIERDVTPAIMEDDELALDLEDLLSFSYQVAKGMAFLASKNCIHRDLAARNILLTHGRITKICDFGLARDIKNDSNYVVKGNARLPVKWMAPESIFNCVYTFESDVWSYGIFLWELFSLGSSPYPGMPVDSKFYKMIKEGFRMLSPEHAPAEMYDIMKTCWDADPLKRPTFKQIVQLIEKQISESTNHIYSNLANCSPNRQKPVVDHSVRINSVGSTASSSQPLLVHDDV
Chain of c-Kit (D816H) (P10721 26-976 D816H): as the sequence (P10721 26-976) above, with D791H counted along it
Chain of c-Kit (V654A) (P10721 26-976 V654A): as the sequence (P10721 26-976) above, with V629A counted along it
Chain of c-Kit (D816V) (P10721 26-976 D816V): as the sequence (P10721 26-976) above, with D791V counted along it
Chain of c-Kit (T670I) (P10721 26-976 T670I): as the sequence (P10721 26-976) above, with T645I counted along it
Chain of c-Kit (V560G) (P10721 26-976 V560G): as the sequence (P10721 26-976) above, with V535G counted along it

`Cc1ccc(NC(=O)c2ccc3c(c2)CC[C@@H]3N2CCN(C)CC2)cc1Nc1nccc(-c2cccnc2)n1` [EXAMPLE 11, (1S)-1-(4-methylpiperazin-1-yl)-N-(4-methyl-3-[(4-pyridin-3-ylpyrimidin-2-yl)amino]phenyl)-2,3-dihydro-1H-indene-5-carboxamide] gave an IC50 [1] of 8.5 nM, an IC50 [2] of 9.6 nM and an IC50 [3] of 132 nM. For the same compound, the IC50 [4] was 83.6 nM, the IC50 [5] was 1740 nM and the IC50 [6] was 2060 nM. It also gave an IC50 [7] of 1.77 nM, an IC50 [8] of 969 nM and an IC50 [9] of 3.2 nM.
`Cc1ccc(NC(=O)c2ccc3c(c2)CCC3N2CCNCC2)cc1Nc1nccc(-c2cccnc2)n1` (stereo not shown) [EXAMPLE 3, N-(4-methyl-3-[(4-pyridin-3-ylpyrimidin-2-yl)amino]phenyl)-1-piperazin-1-yl-2,3-dihydro-1H-indene-5-carboxamide] showed an IC50 [1] of 16 nM.
Work on `Cc1cn(-c2cc(NC(=O)c3ccc(C)c(Nc4nccc(-c5cccnc5)n4)c3)cc(C(F)(F)F)c2)cn1` [Nilotinib] yielded an IC50 [10] of 6.26 nM, an IC50 ([11]; Homo sapiens, KU812) of 2.1 nM and an IC50 ([12]; Homo sapiens, MEG-01) of 1.65 nM. For the same compound, the IC50 [13] was 22.3 nM and the IC50 ([14]; Homo sapiens, SUP-B15) was 135 nM.
Compound `Cc1ccc(NC(=O)c2ccc3c(c2)CC[C@H]3N2CCN(C)CC2)cc1Nc1nccc(-c2cncnc2)n1` [EXAMPLE 14, (1R)—N-[3-(4,5′-bipyrimidin-2-ylamino)-4-methylphenyl]-1-(4-methylpiperazin-1-yl)-2,3-dihydro-1H-indene-5-carboxamide] has an IC50 [1] of 2260 nM and an IC50 [2] of 65 nM.
In the case of `Cc1ccc(NC(=O)c2ccc3c(c2)CC[C@@H]3N2CCN(C)CC2)cc1Nc1nccc(-c2cncnc2)n1` [EXAMPLE 13, (1S)—N-[3-(4,5′-bipyrimidin-2-ylamino)-4-methylphenyl]-1-(4-methylpiperazin-1-yl)-2,3-dihydro-1H-indene-5-carboxamide], the IC50 [1] is reported as 15 nM, the IC50 [2] is reported as 13 nM and the IC50 [9] is reported as 2.2 nM.
`Cc1ccc(NC(=O)c2ccc3c(c2)CC[C@@H]3N2CCN(C)CC2)cc1Nc1nccc(-c2ccncc2)n1` [EXAMPLE 15, (1S)-1-(4-methylpiperazin-1-yl)-N-(4-methyl-3-[(4-pyridin-4-ylpyrimidin-2-yl)amino]phenyl)-2,3-dihydro-1H-indene-5-carboxamide] showed an IC50 [1] of 526 nM, an IC50 [2] of 24 nM and an IC50 [9] of 35 nM.
`Cc1ccc(NC(=O)c2ccc3c(c2)CC[C@@H]3N2CCN(C)CC2)cc1Nc1nccc(-c2cccnc2)n1` [EXAMPLE 16, (1S)-1-(4-methylpiperazin-1-yl)-N-(4-methyl-3-[(4-pyridin-3-ylpyrimidin-2-yl)amino]phenyl)-2,3-dihydro-1H-indene-5-carboxamide sulfate] showed an IC50 [10] of 0.25 nM, an IC50 ([11]; Homo sapiens, KU812) of 0.024 nM and an IC50 ([12]; Homo sapiens, MEG-01) of 0.085 nM. It also gave an IC50 [13] of 11.2 nM and an IC50 ([14]; Homo sapiens, SUP-B15) of 39.6 nM.
With `CC(=O)N1CCN(C2CCc3cc(C(=O)Nc4ccc(C)c(Nc5nccc(-c6cccnc6)n5)c4)ccc32)CC1` (stereo not shown) [EXAMPLE 7, 1-[4-acetylpiperazin-1-yl)-N-(4-methyl-3-[(4-pyridin-3-ylpyrimidin-2-yl)amino]phenyl)-2,3-dihydro-1H-indene-5-carboxamide] the IC50 [1] was 529 nM and the IC50 [2] was 41 nM.
In the case of `CN[C@@H]1C[C@H]2O[C@@](C)([C@@H]1OC)n1c3ccccc3c3c4c(c5c6ccccc6n2c5c31)C(=O)NC4` [Staurosporine], the IC50 [11] is reported as 9.57 nM, the IC50 [12] is reported as 8.97 nM and the IC50 [14] is reported as 6.84 nM. For the same compound, the IC50 [15] was 139 nM.
For `Cc1ccc(NC(=O)c2ccc3c(c2)CCC3N2CCN(C)CC2)cc1Nc1nccc(-c2cccnc2)n1` (stereo not shown) [EXAMPLE 1, 1-(4-methylpiperazin-1-yl)-N-(4-methyl-3-[(4-pyridin-3-ylpyrimidin-2-yl)amino]phenyl)-2,3-dihydro-1H-inden-5-carboxamide], the IC50 [1] was 22 nM and the IC50 [2] was 17 nM.
Work on `Cc1ccc(NC(=O)c2ccc3c(c2)CCC3N2CCN(CCO)CC2)cc1Nc1nccc(-c2cccnc2)n1` (stereo not shown) [EXAMPLE 6] yielded an IC50 [1] of 32 nM and an IC50 [2] of 20 nM.
`Cc1ccc(NC(=O)c2ccc3c(c2)CCC3N2CC[C@H](N(C)C)C2)cc1Nc1nccc(-c2cccnc2)n1` (stereo partly drawn) [EXAMPLE 9, 1-[(3S)-3-(dimethylamino)pyrrolidin-1-yl]-N-{4-methyl-3-[(4-pyridin-3-ylpyrimidin-2-yl)amino]phenyl}-2,3-dihydro-1H-indene-5-carboxamide] showed an IC50 [1] of 51 nM and an IC50 [2] of 15 nM.
Work on `Cc1ccc(NC(=O)c2ccc3c(c2)CCC3N2CCN(C(C)C)CC2)cc1Nc1nccc(-c2cccnc2)n1` (stereo not shown) [EXAMPLE 5, 1-(4-isopropylpiperazin-1-yl)-N-(4-methyl-3-[(4-pyridin-3-ylpyrimidin-2-yl)amino]phenyl)-2,3-dihydro-1H-indene-5-carboxamide] yielded an IC50 [1] of 23 nM and an IC50 [2] of 18 nM.
Work on `Cc1ccc(NC(=O)c2ccc3c(c2)CCC3N2CCN(C(=O)OC(C)(C)C)CC2)cc1Nc1nccc(-c2cccnc2)n1` (stereo not shown) [EXAMPLE 2, tert-butyl 4-{5-[({4-methyl-3-[(4-pyridin-3-ylpyrimidin-2-yl)amino]phenyl}amino)carbonyl)-2,3-dihydro-1-H-inden-1-yl}piperazin-1-carboxylate] yielded an IC50 [1] of 1190 nM and an IC50 [2] of 233 nM.
Compound `Cc1ccc(NC(=O)c2ccc3c(c2)CCC3N2CCN(C)CC2)cc1Nc1nccc(-c2cncnc2)n1` (stereo not shown) [EXAMPLE 8, N-[3-(4,5′-bipyrimidine-2-ylamino)-4-methylphenyl]-1-(4-methylpiperazin-1-yl)-2,3-dihydro-1H-indene-5-carboxamide] has an IC50 [1] of 32 nM and an IC50 [2] of 22 nM.
`Cc1ccc(NC(=O)c2ccc3c(c2)CC[C@H]3N2CCN(C)CC2)cc1Nc1nccc(-c2cccnc2)n1` [EXAMPLE 12, (1R)-1-(4-methylpiperazin-1-yl)-N-(4-methyl-3-[(4-pyridin-3-ylpyrimidin-2-yl)amino]phenyl)-2,3-dihydro-1H-indene-5-carboxamide] gave an IC50 [1] of 2250 nM, an IC50 [2] of 53 nM and an IC50 [9] of 208 nM.
